Data reported in US8192962B2, “Processes for detecting toxic substances” (Daikin Industries, Ltd., priority 2001, dated 2012).

Tested on: Energy system protein genes
Assay: DNA chip mRNA expression in yeast, energy system protein genes (Table 4)
Type: cell-based, Saccharomyces cerevisiae S288C
Method: Yeast (Saccharomyces cerevisiae S288C (α SUC2mal mel gap2 CUP1)) were incubated at 25° C. on YPD medium (yeast extract 1%, polypepton 2%, glucose 2%). One of toxic chemical substances was added to the cells at logarithmic growth phase, and the cells were further incubated for two hours. Cells were cultured without any chemical substance in the same condition, and were used as control. Concentrations of the chemical substances were defined to inhibit the growth of the yeast but not lead to death.
After completion of the incubation, the culture was centrifuged to collect the cells. To the cells, sodium acetate buffer (50 mM sodium acetate, 10 mM EDTA, 1% SDS) was added, and the mixture was shaken at 65° C. for five minutes, followed by returning to room temperature, and obtaining the supernatant, of which the procedures were repeated two times. To the supernatant, ½ amount of a solution of phenol/chloroform was added, and the mixture was centrifuged to give a supernatant, which was added with an equal amount of chloroform, and the mixture was centrifuged to give a supernatant. To the supernatant, an equal amount of isopropanol containing 0.3 M sodium acetate was added, and the mixture was allowed to stand at room temperature for 30 minutes, after which the mixture was centrifuged to give a sediment of the whole RNAs. Seventy % ethanol was added to the sediment, and the mixture was again centrifuged to give a sediment, which was then dried and dissolved in water. mRNA was isolated from the whole RNAs as followings. In view of the fact that a poly A chain is attached to the 3′ terminus of mRNA, a polynucleotide having a poly T structure which was immobilized on the surface of latex beads was used to trap the mRNA, and then the mRNA was washed and eluted with spine column (Oligotex-dT30<Super>mRNA Purification Kit, Takara). Reverse transcription of the mRNA was conducted with a reverse transcriptase (Super Script II Reverse Transcriptase; catalogue No. 18064-014, GibcoBRL) using fluorescence-labeled nucleotides to give cDNAs that were introduced with Cy3-dUTP or Cy5-dUTP during the reverse transcription.
The labeled cDNAs were dissolved in TE buffer (10mM Tris-HCl/1 mM EDTA, pH8.0), and the solution was dropped on the DNA chip containing the whole genes of yeast (DNA Chip Research Inc. Japan) so that the cDNAs were hybridized on the DNA chip at 65° C. for over 12 hours. The fluoresces intensity of the DNA chip was read with a scanner, and the ratio relative to the fluorescence intensity resulting from the absence of chemical substance was estimated as the following, which is shown in Tables 1 to 9: […]

N#Cc1c(Cl)c(Cl)c(Cl)c(C#N)c1Cl [(9), 2,4,5,6-tetrachloro-1,3-benzenedicarbonitrile]
The level of expressed mRNA in the presence of chemical substance/The level of expressed mRNA in the absence of chemical substance (yeast gene YAL054C): 8.9
The level of expressed mRNA in the presence of chemical substance/The level of expressed mRNA in the absence of chemical substance (yeast gene YAL060W): 0.6
The level of expressed mRNA in the presence of chemical substance/The level of expressed mRNA in the absence of chemical substance (yeast gene YBL058W, cells incubated two hours with the chemical substance): 2.6
The level of expressed mRNA in the presence of chemical substance/The level of expressed mRNA in the absence of chemical substance (yeast gene YBL099W, cells incubated two hours with the chemical substance): 0.9
The level of expressed mRNA in the presence of chemical substance/The level of expressed mRNA in the absence of chemical substance (yeast gene YBR001C, cells incubated two hours with the chemical substance): 2.3
The level of expressed mRNA in the presence of chemical substance/The level of expressed mRNA in the absence of chemical substance (yeast gene YBR185C, cells incubated two hours with the chemical substance): 0.9
The level of expressed mRNA in the presence of chemical substance/The level of expressed mRNA in the absence of chemical substance (yeast gene YBR221C, cells incubated two hours with the chemical substance): 1.0
The level of expressed mRNA in the presence of chemical substance/The level of expressed mRNA in the absence of chemical substance (yeast gene YBR299W): 1.1
The level of expressed mRNA in the presence of chemical substance/The level of expressed mRNA in the absence of chemical substance (yeast gene YCL040W): 0.9
The level of expressed mRNA in the presence of chemical substance/The level of expressed mRNA in the absence of chemical substance (yeast gene YCR012W): 1.4
The level of expressed mRNA in the presence of chemical substance/The level of expressed mRNA in the absence of chemical substance (yeast gene YCR046C, cells incubated two hours with the chemical substance): 1.9
The level of expressed mRNA in the presence of chemical substance/The level of expressed mRNA in the absence of chemical substance (yeast gene YCR105W, cells incubated two hours with the chemical substance): 2.0
The level of expressed mRNA in the presence of chemical substance/The level of expressed mRNA in the absence of chemical substance (yeast gene YDL021W): 2.5
The level of expressed mRNA in the presence of chemical substance/The level of expressed mRNA in the absence of chemical substance (yeast gene YDL067C, cells incubated two hours with the chemical substance): 0.9
The level of expressed mRNA in the presence of chemical substance/The level of expressed mRNA in the absence of chemical substance (yeast gene YDL078C, cells incubated two hours with the chemical substance): 1.1
The level of expressed mRNA in the presence of chemical substance/The level of expressed mRNA in the absence of chemical substance (yeast gene YDL107W, cells incubated two hours with the chemical substance): 1.2
The level of expressed mRNA in the presence of chemical substance/The level of expressed mRNA in the absence of chemical substance (yeast gene YDL174C): 0.5
The level of expressed mRNA in the presence of chemical substance/The level of expressed mRNA in the absence of chemical substance (yeast gene YDL181W, cells incubated two hours with the chemical substance): 0.7
The level of expressed mRNA in the presence of chemical substance/The level of expressed mRNA in the absence of chemical substance (yeast gene YDR001C): 2.2
The level of expressed mRNA in the presence of chemical substance/The level of expressed mRNA in the absence of chemical substance (yeast gene YDR050C, cells incubated two hours with the chemical substance): 0.4
The level of expressed mRNA in the presence of chemical substance/The level of expressed mRNA in the absence of chemical substance (yeast gene YDR079W, cells incubated two hours with the chemical substance): 0.9
The level of expressed mRNA in the presence of chemical substance/The level of expressed mRNA in the absence of chemical substance (yeast gene YDR178W, cells incubated two hours with the chemical substance): 0.9
The level of expressed mRNA in the presence of chemical substance/The level of expressed mRNA in the absence of chemical substance (yeast gene YDR231C): 1.5
The level of expressed mRNA in the presence of chemical substance/The level of expressed mRNA in the absence of chemical substance (yeast gene YDR298C, cells incubated two hours with the chemical substance): 1.0
The level of expressed mRNA in the presence of chemical substance/The level of expressed mRNA in the absence of chemical substance (yeast gene YDR377W, cells incubated two hours with the chemical substance): 1.0
The level of expressed mRNA in the presence of chemical substance/The level of expressed mRNA in the absence of chemical substance (yeast gene YDR529C, cells incubated two hours with the chemical substance): 0.5
The level of expressed mRNA in the presence of chemical substance/The level of expressed mRNA in the absence of chemical substance (yeast gene YEL024W, cells incubated two hours with the chemical substance): 0.7
The level of expressed mRNA in the presence of chemical substance/The level of expressed mRNA in the absence of chemical substance (yeast gene YEL039C, cells incubated two hours with the chemical substance): 1.2
The level of expressed mRNA in the presence of chemical substance/The level of expressed mRNA in the absence of chemical substance (yeast gene YER178W): 1.7
The level of expressed mRNA in the presence of chemical substance/The level of expressed mRNA in the absence of chemical substance (yeast gene YFL057C): 51.8
The level of expressed mRNA in the presence of chemical substance/The level of expressed mRNA in the absence of chemical substance (yeast gene YFR053C): 0.6
The level of expressed mRNA in the presence of chemical substance/The level of expressed mRNA in the absence of chemical substance (yeast gene YGL018C, cells incubated two hours with the chemical substance): 0.5
The level of expressed mRNA in the presence of chemical substance/The level of expressed mRNA in the absence of chemical substance (yeast gene YGL062W): 1.6
The level of expressed mRNA in the presence of chemical substance/The level of expressed mRNA in the absence of chemical substance (yeast gene YGL187C, cells incubated two hours with the chemical substance): 0.6
The level of expressed mRNA in the presence of chemical substance/The level of expressed mRNA in the absence of chemical substance (yeast gene YGL191W, cells incubated two hours with the chemical substance): 1.1
The level of expressed mRNA in the presence of chemical substance/The level of expressed mRNA in the absence of chemical substance (yeast gene YGL205W, cells incubated two hours with the chemical substance): 0.5
The level of expressed mRNA in the presence of chemical substance/The level of expressed mRNA in the absence of chemical substance (yeast gene YGL256W, cells incubated two hours with the chemical substance): 0.4
The level of expressed mRNA in the presence of chemical substance/The level of expressed mRNA in the absence of chemical substance (yeast gene YGR008C): 3.1
The level of expressed mRNA in the presence of chemical substance/The level of expressed mRNA in the absence of chemical substance (yeast gene YGR043C): 10.9
The level of expressed mRNA in the presence of chemical substance/The level of expressed mRNA in the absence of chemical substance (yeast gene YGR062C, cells incubated two hours with the chemical substance, 25° C., YPD medium): 1.0
The level of expressed mRNA in the presence of chemical substance/The level of expressed mRNA in the absence of chemical substance (yeast gene YGR087C, cells incubated two hours with the chemical substance): 0.2
The level of expressed mRNA in the presence of chemical substance/The level of expressed mRNA in the absence of chemical substance (yeast gene YGR174C, cells incubated two hours with the chemical substance): 1.8
The level of expressed mRNA in the presence of chemical substance/The level of expressed mRNA in the absence of chemical substance (yeast gene YGR192C): 0.9
The level of expressed mRNA in the presence of chemical substance/The level of expressed mRNA in the absence of chemical substance (yeast gene YGR244C): 1.4
The level of expressed mRNA in the presence of chemical substance/The level of expressed mRNA in the absence of chemical substance (yeast gene YGR254W): 0.8
The level of expressed mRNA in the presence of chemical substance/The level of expressed mRNA in the absence of chemical substance (yeast gene YGR256W): 3.4
The level of expressed mRNA in the presence of chemical substance/The level of expressed mRNA in the absence of chemical substance (yeast gene YHL008C): 1.6
The level of expressed mRNA in the presence of chemical substance/The level of expressed mRNA in the absence of chemical substance (yeast gene YHR174W): 1.0
The level of expressed mRNA in the presence of chemical substance/The level of expressed mRNA in the absence of chemical substance (yeast gene YHR179W): 3.6
The level of expressed mRNA in the presence of chemical substance/The level of expressed mRNA in the absence of chemical substance (yeast gene YIL160C): 3.2
The level of expressed mRNA in the presence of chemical substance/The level of expressed mRNA in the absence of chemical substance (yeast gene YIR031C, cells incubated two hours with the chemical substance): 2.6
The level of expressed mRNA in the presence of chemical substance/The level of expressed mRNA in the absence of chemical substance (yeast gene YJL052W): 1.6
